Molecular target: T1, Or22a/Orco (Drosophila melanogaster, UniProt P81909)
T1 construct: his-tag; made in house; host or cells: baculovirus-infected Sf9 cells
T1 sequence (P81909 1-397): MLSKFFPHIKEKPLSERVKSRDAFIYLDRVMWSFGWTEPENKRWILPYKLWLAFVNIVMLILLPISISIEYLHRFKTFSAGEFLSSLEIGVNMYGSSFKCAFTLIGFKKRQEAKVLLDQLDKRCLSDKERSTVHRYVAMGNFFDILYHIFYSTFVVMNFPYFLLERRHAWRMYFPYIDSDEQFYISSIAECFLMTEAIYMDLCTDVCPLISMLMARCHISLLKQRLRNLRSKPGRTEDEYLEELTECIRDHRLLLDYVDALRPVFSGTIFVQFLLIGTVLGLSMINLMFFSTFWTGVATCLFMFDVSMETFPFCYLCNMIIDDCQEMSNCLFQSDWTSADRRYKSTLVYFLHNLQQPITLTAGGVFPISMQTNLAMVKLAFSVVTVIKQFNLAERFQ
T1 sequence (Q9VNB5 1-486 partner): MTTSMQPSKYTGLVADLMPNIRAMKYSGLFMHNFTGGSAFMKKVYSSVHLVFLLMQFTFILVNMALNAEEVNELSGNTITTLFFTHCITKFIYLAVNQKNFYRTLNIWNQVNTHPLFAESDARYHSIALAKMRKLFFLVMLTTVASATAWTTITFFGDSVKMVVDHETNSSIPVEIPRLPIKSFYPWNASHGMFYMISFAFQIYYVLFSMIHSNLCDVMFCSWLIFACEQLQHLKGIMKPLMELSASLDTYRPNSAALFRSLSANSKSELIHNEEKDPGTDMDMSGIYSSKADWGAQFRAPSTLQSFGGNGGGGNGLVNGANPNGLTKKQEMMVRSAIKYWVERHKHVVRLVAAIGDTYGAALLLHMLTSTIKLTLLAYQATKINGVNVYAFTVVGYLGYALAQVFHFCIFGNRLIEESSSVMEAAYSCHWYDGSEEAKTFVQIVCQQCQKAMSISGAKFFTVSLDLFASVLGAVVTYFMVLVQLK
Test: Droplet interface bilayer ion channel recording, Or22a/Orco
Type: biochemical
Settings: DIB, 10 μM ligand, at +/−100 mV, +/−50 mV and −25 mV
Procedure: Bilayers were formed between two droplets formed within a PMMA chamber filled with 1 mg/ml DPhPC in undecane and AR20 silicone oil (1:1 ratio). The first step in this process was to deposit a 50 nl droplet onto the stationary silver electrode positioned at the base of the well; this droplet consisted of an aqueous solution containing 300 mM NaCl, 10 mM HEPES (pH 7.4), containing the odorant receptor proteins in proteoliposomes (at a 1:20 dilution from the proteoliposome preparation), […] The second droplet was mounted onto a second silver electrode which was held in the oil and lipid mixture using a YOU-3 manipulator (Narishige, Japan). […] Once the droplets were in contact a bilayer formed spontaneously within 1 minute (as determined by visual assessment and an increase in the bilayer capacitance as measured with a capacitance voltage protocol using the Pico2 amplifier). Insertion of an active channel was determined by a change in current while clamping the voltage at 50 mV. […]
Currents were recorded with a Pico2 or an eONE-HS amplifier (Tecella, USA and Elements, Italy, respectively) with built-in digitizers, operating in gap-free acquisition mode at a sampling frequency of 20 kHz, and using a 0.8 or 1.5 kHz low pass filter. […]
Data were analysed using ANA (Dr Pusch, Genoa), EDR (Elements, Italy) and WinWCP (Dr Dempster, University of Strathclyde). […]

In the case of `CCCCCC(=O)OC` [methyl hexanoate], the ion channel activity is reported as “ion channel activity is observed”.
